# System: K24384-001-R-PDC complex spheroids, viability
# Assay: Anticancer human tumor K24384-001-R-PDC patient-derived pancreatic adenocarcinoma cell line growth inhibition [GQUAD]
# Details: for IC50: curve of first compound; for viability, T/C: stronger effect = lower value
# Method in brief: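 Multi-cell-type spheroids of tumor cells with HUVEC and mesenchymal stem cells, treated with drug combinations. Concentrations descend in half-log steps from near clinical Cmax, or from 10 microM where Cmax is unknown; viability read-out.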
# [1] = second compound 0.0316 µM, first compound 0.0316 µM
# [2] = second compound 0.0316 µM, first compound 0.1 µM
# [3] = second compound 0.0316 µM, first compound 0.316 µM
# [4] = second compound 0.0316 µM, first compound 1 µM
# [5] = second compound 0.0316 µM, first compound 3.16 µM
# [6] = second compound 0.0316 µM, first compound 10 µM
# [7] = second compound 0.1 µM, first compound 0.0316 µM
# [8] = second compound 0.1 µM, first compound 0.1 µM
# [9] = second compound 0.1 µM, first compound 0.316 µM
# [10] = second compound 0.1 µM, first compound 1 µM
# [11] = second compound 0.1 µM, first compound 3.16 µM
# [12] = second compound 0.1 µM, first compound 10 µM
# [13] = second compound 0.316 µM, first compound 0.0316 µM
# [14] = second compound 0.316 µM, first compound 0.1 µM
# [15] = second compound 0.316 µM, first compound 0.316 µM
# [16] = second compound 0.316 µM, first compound 1 µM
# [17] = second compound 0.316 µM, first compound 3.16 µM
# [18] = second compound 0.316 µM, first compound 10 µM
# [19] = second compound 1 µM, first compound 0.0316 µM
# [20] = second compound 1 µM, first compound 0.1 µM
# [21] = second compound 1 µM, first compound 0.316 µM
# [22] = second compound 1 µM, first compound 1 µM
# [23] = second compound 1 µM, first compound 3.16 µM
# [24] = second compound 1 µM, first compound 10 µM
# [25] = second compound 3.16 µM, first compound 0.0316 µM
# [26] = second compound 3.16 µM, first compound 0.1 µM
# [27] = second compound 3.16 µM, first compound 0.316 µM
# [28] = second compound 3.16 µM, first compound 1 µM
# [29] = second compound 3.16 µM, first compound 3.16 µM
# [30] = second compound 3.16 µM, first compound 10 µM
# [31] = second compound 10 µM, first compound 0.0316 µM
# [32] = second compound 10 µM, first compound 0.1 µM
# [33] = second compound 10 µM, first compound 0.316 µM
# [34] = second compound 10 µM, first compound 1 µM
# [35] = second compound 10 µM, first compound 3.16 µM
# [36] = second compound 10 µM, first compound 10 µM
# 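Also: spheroids exposed to compounds for seven days.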
compound,measurement,setting,value
C#Cc1c(F)ccc2cc(O)cc(-c3ncc4c(N5CC6CCC(C5)N6)nc(OCC56CCCN5CC(F)C6)nc4c3F)c12 (stereo not drawn) + Cc1[nH]c2ccc(F)cc2c1-c1nc2c3cccnc3c3ncccc3c2[nH]1,IC50,second compound 0.0316 µM,1360 nM
same,IC50,second compound 0.1 µM,1490 nM
same,IC50,second compound 0.316 µM,1540 nM
same,IC50,second compound 1 µM,1820 nM
same,IC50,second compound 3.16 µM,969 nM
same,IC50,second compound 10 µM,1080 nM
same,"viability, T/C",[1],99.9%
same,"viability, T/C",[2],99.6%
same,"viability, T/C",[3],129%
same,"viability, T/C",[4],58.5%
same,"viability, T/C",[5],34.4%
same,"viability, T/C",[6],18.2%
same,"viability, T/C",[7],93.9%
same,"viability, T/C",[8],112%
same,"viability, T/C",[9],85.1%
same,"viability, T/C",[10],58%
same,"viability, T/C",[11],34.3%
same,"viability, T/C",[12],14.5%
same,"viability, T/C",[13],97.1%
same,"viability, T/C",[14],101%
same,"viability, T/C",[15],74.4%
same,"viability, T/C",[16],57.4%
same,"viability, T/C",[17],39.2%
same,"viability, T/C",[18],19.1%
same,"viability, T/C",[19],91%
same,"viability, T/C",[20],101%
same,"viability, T/C",[21],83%
same,"viability, T/C",[22],64.1%
same,"viability, T/C",[23],37.5%
same,"viability, T/C",[24],16.9%
same,"viability, T/C",[25],75.6%
same,"viability, T/C",[26],87.6%
same,"viability, T/C",[27],64.7%
same,"viability, T/C",[28],47.1%
same,"viability, T/C",[29],31.3%
same,"viability, T/C",[30],11.7%
same,"viability, T/C",[31],80.5%
same,"viability, T/C",[32],68.6%
same,"viability, T/C",[33],69%
same,"viability, T/C",[34],52.4%
same,"viability, T/C",[35],27.5%
same,"viability, T/C",[36],10.8%
CCCS(=O)(=O)Nc1ccc(F)c(C(=O)c2c[nH]c3ncc(-c4ccc(Cl)cc4)cc23)c1F + Cc1[nH]c2ccc(F)cc2c1-c1nc2c3cccnc3c3ncccc3c2[nH]1,IC50,second compound 0.0316 µM,9150 nM
same,IC50,second compound 0.1 µM,8660 nM
same,IC50,second compound 0.316 µM,8260 nM
same,IC50,second compound 1 µM,7750 nM
same,IC50,second compound 3.16 µM,5030 nM
same,IC50,second compound 10 µM,5990 nM
same,"viability, T/C",[1],86.4%
same,"viability, T/C",[2],137%
same,"viability, T/C",[3],107%
same,"viability, T/C",[4],117%
same,"viability, T/C",[5],130%
same,"viability, T/C",[6],44.5%
same,"viability, T/C",[7],87.7%
same,"viability, T/C",[8],105%
same,"viability, T/C",[9],117%
same,"viability, T/C",[10],128%
same,"viability, T/C",[11],122%
same,"viability, T/C",[12],41%
same,"viability, T/C",[13],92.1%
same,"viability, T/C",[14],102%
same,"viability, T/C",[15],140%
same,"viability, T/C",[16],137%
same,"viability, T/C",[17],125%
same,"viability, T/C",[18],36.3%
same,"viability, T/C",[19],112%
same,"viability, T/C",[20],109%
same,"viability, T/C",[21],108%
same,"viability, T/C",[22],126%
same,"viability, T/C",[23],128%
same,"viability, T/C",[24],31%
same,"viability, T/C",[25],77%
same,"viability, T/C",[26],111%
same,"viability, T/C",[27],76.7%
same,"viability, T/C",[28],92.2%
same,"viability, T/C",[29],75.9%
same,"viability, T/C",[30],11.3%
same,"viability, T/C",[31],84.6%
same,"viability, T/C",[32],80.8%
same,"viability, T/C",[33],85.2%
same,"viability, T/C",[34],117%
same,"viability, T/C",[35],109%
same,"viability, T/C",[36],13.8%
Cc1[nH]c2ccccc2c1CCNCc1ccc(/C=C/C(=O)NO)cc1 + Cc1[nH]c2ccc(F)cc2c1-c1nc2c3cccnc3c3ncccc3c2[nH]1,IC50,second compound 0.0316 µM,139 nM
same,IC50,second compound 0.1 µM,138 nM
same,IC50,second compound 0.316 µM,121 nM
same,IC50,second compound 1 µM,124 nM
same,IC50,second compound 3.16 µM,128 nM
same,IC50,second compound 10 µM,134 nM
same,"viability, T/C","second compound 0.0316 µM, first compound 0.000999 µM",103%
same,"viability, T/C","second compound 0.0316 µM, first compound 0.00316 µM",111%
same,"viability, T/C","second compound 0.0316 µM, first compound 0.00999 µM",119%
same,"viability, T/C",[1],103%
same,"viability, T/C","second compound 0.0316 µM, first compound 0.0999 µM",67.9%
same,"viability, T/C",[3],5.6%
same,"viability, T/C","second compound 0.1 µM, first compound 0.000999 µM",99.1%
same,"viability, T/C","second compound 0.1 µM, first compound 0.00316 µM",95.2%
same,"viability, T/C","second compound 0.1 µM, first compound 0.00999 µM",98.7%
same,"viability, T/C",[7],99.6%
same,"viability, T/C","second compound 0.1 µM, first compound 0.0999 µM",66.7%
same,"viability, T/C",[9],7.11%
same,"viability, T/C","second compound 0.316 µM, first compound 0.000999 µM",95%
same,"viability, T/C","second compound 0.316 µM, first compound 0.00316 µM",92.9%
same,"viability, T/C","second compound 0.316 µM, first compound 0.00999 µM",101%
same,"viability, T/C",[13],103%
same,"viability, T/C","second compound 0.316 µM, first compound 0.0999 µM",58.6%
same,"viability, T/C",[15],5.93%
same,"viability, T/C","second compound 1 µM, first compound 0.000999 µM",91.3%
same,"viability, T/C","second compound 1 µM, first compound 0.00316 µM",91.8%
same,"viability, T/C","second compound 1 µM, first compound 0.00999 µM",124%
same,"viability, T/C",[19],118%
same,"viability, T/C","second compound 1 µM, first compound 0.0999 µM",60.1%
same,"viability, T/C",[21],7.14%
same,"viability, T/C","second compound 3.16 µM, first compound 0.000999 µM",81.3%
same,"viability, T/C","second compound 3.16 µM, first compound 0.00316 µM",87.7%
same,"viability, T/C","second compound 3.16 µM, first compound 0.00999 µM",77.3%
same,"viability, T/C",[25],94.4%
same,"viability, T/C","second compound 3.16 µM, first compound 0.0999 µM",61.1%
same,"viability, T/C",[27],8.67%
same,"viability, T/C","second compound 10 µM, first compound 0.000999 µM",77.2%
same,"viability, T/C","second compound 10 µM, first compound 0.00316 µM",72.9%
same,"viability, T/C","second compound 10 µM, first compound 0.00999 µM",77.2%
same,"viability, T/C",[31],118%
same,"viability, T/C","second compound 10 µM, first compound 0.0999 µM",65.4%
same,"viability, T/C",[33],5.58%
O=C(NO)c1cnc(N2CCN(S(=O)(=O)c3ccc4ccccc4c3)CC2)nc1 + Cc1[nH]c2ccc(F)cc2c1-c1nc2c3cccnc3c3ncccc3c2[nH]1,IC50,second compound 0.0316 µM,618 nM
same,IC50,second compound 0.1 µM,671 nM
same,IC50,second compound 0.316 µM,787 nM
same,IC50,second compound 1 µM,1050 nM
same,IC50,second compound 3.16 µM,871 nM
same,IC50,second compound 10 µM,858 nM
same,"viability, T/C",[1],109%
same,"viability, T/C",[2],105%
same,"viability, T/C",[3],87.7%
same,"viability, T/C",[4],23.1%
same,"viability, T/C",[5],0.14%
same,"viability, T/C",[6],0.17%
same,"viability, T/C",[7],96.6%
same,"viability, T/C",[8],103%
same,"viability, T/C",[9],79.2%
same,"viability, T/C",[10],35%
same,"viability, T/C",[11],0.16%
same,"viability, T/C",[12],0.15%
same,"viability, T/C",[13],102%
same,"viability, T/C",[14],94.5%
same,"viability, T/C",[15],88.4%
same,"viability, T/C",[16],40.5%
same,"viability, T/C",[17],0.1%
same,"viability, T/C",[18],0.12%
same,"viability, T/C",[19],105%
same,"viability, T/C",[20],107%
same,"viability, T/C",[21],101%
same,"viability, T/C",[22],52.3%
same,"viability, T/C",[23],0.16%
same,"viability, T/C",[24],0.12%
same,"viability, T/C",[25],75.6%
same,"viability, T/C",[26],110%
same,"viability, T/C",[27],88.7%
same,"viability, T/C",[28],44.7%
same,"viability, T/C",[29],0.18%
same,"viability, T/C",[30],0.14%
same,"viability, T/C",[31],71.5%
same,"viability, T/C",[32],95.8%
same,"viability, T/C",[33],82.7%
same,"viability, T/C",[34],44.9%
same,"viability, T/C",[35],0.22%
same,"viability, T/C",[36],0.17%
